Test results published in US20190380954A1, “Bone Regeneration Agent” (Kao Corporation, priority 2017, published 2019).

Columns and labels:
[1] = system: alveolar bone of rats with ligature-induced periodontitis; conditions: niacin 25 mM in PBS, 100 μL dropped onto right and left second molars twice a day for 4 weeks after ligature removal; compared to PBS group; base line group 0%, Sham group 100%; Tukey, 5%
Experimental: Twenty-eight 8-week-old male Wister Rats were purchased from Japan SLC, Inc., and the rats were acclimated for one week. Subsequently, the body weights of the rats were measured, and the rats were assigned into four groups (base line group, Sham group, PBS group, and niacin group) such that the average body weights of the groups would be even.
Under isoflurane inhalation anesthesia, No. 3-0 nylon sutures (manufactured by Akiyama Seisakusho Co., Ltd.) were ligated to the right and left second molars in the upper jaw of the rats of the base line group, PBS group, and niacin group to induce periodontitis, and the rats of the respective groups were reared for two weeks. […]
After rearing for two weeks, the ligatures (No. 3-0 nylon sutures described above) were excised from the rats of the PBS group and the niacin group. For the base line group, the rats were euthanized by bleeding from the abdominal aorta under isoflurane inhalation anesthesia, and the alveolar bone resorption depths of the respective groups were measured by the following method. […]
The alveolar bone regeneration amount of the base line group was designated as 0%, and the alveolar bone regeneration amount of the Sham group was designated as 100%. Thus, the alveolar bone regeneration amounts of the PBS group and the niacin group were calculated from the average alveolar bone resorption depth thus calculated. […]

[2] = system: gums; conditions: niacin or an ester compound thereof, intraoral composition; cited from earlier work
[3] = system: periodontal disease model rat; conditions: suppression of alveolar bone resorption is not reported; cited from earlier work
[4] = system: gums / periodontal pocket; conditions: blood circulation enhancers such as vitamin E; cited from earlier work

Row | Compound | regeneration amount of the alveolar bone [1] | blood circulation in the gums [2] | inflammatory response [3] | Gingival index (swelling of gums) [4] | Periodontal probing depth (depth of periodontal pocket, reflecting extent of alveolar bone resorption) [4]
1 | O=C(O)c1cccnc1 [niacin, niacin (nicotinic acid)] | significantly increased | promotes blood circulation in the gums |  |  | 
2 | vitamin E |  |  | suppresses inflammatory response | do not improve | do not improve
